For data set [1], the system named is NDRG4 or OSMR plasmid material. The data set can be described thus: Real-time MSP assay designs on plasmid material. On the set-up: key to Ct / Duplicate Ct / Average Ct: cycle number at which amplification curve crosses threshold. Particulars: for PCR efficiency: from standard curve on plasmid material. As to the method: Plasmid material corresponding to a promoter region of NDRG4 and OSMR gene was used to test additional assay designs. The plasmid for the standard curve was generated as follows: the promoter sequence as defined by the primers is PCR amplified and cloned (using suitable isolated and bisulphite modified cell line DNA). The sequence is verified by sequencing and compared to the published promoter sequence. A serial dilution of either NDRG4 or OSMR plasmid material (2×10^6 to 2×10^1 copies/5 μl) was loaded in duplicate. 5 μl of plasmid dilution or buffer (non template control) was added to a 20 μl PCR mix containing the specified primer and beacon detector sequences as previously described. Results were generated using the SDS 2.2 software from Applied Biosystems with automatic baseline and threshold settings. Data were exported as Ct values (cycle number at which the amplification curves cross the threshold value, set automatically by the software).

Data set [2] has as its system methylated gene promoters in FFPE tissue DNA. The data set can be described thus: Real-time MSP on colon tissue samples. On the set-up: species or system human. Particulars: for Specificity (%) / Sensitivity (%): 50 cases (adenoma + carcinoma) vs 39 controls, tissue. As to the method:
Real-time MSP was applied on a 7900HT fast real-time PCR system (Applied Biosystems). 2.4 μl of the modified DNA (equivalent to 2.5 μg unconverted DNA) was added to a PCR mix (total volume 12 μl) containing buffer (16.6 mM (NH4)2SO4, 67 mM Tris (pH 8.8), 6.7 mM MgCl2, 10 mM β-mercaptoethanol), dNTPs (5 mM), forward primer (6 ng), reverse primer (18 ng), molecular beacon (0.16 μM), BSA (0.1 μg), and Jumpstart DNA Taq polymerase (0.4 units; Sigma Aldrich). Cycle program used was as follows: 5 minutes 95° C., followed by 45 cycles of 30 seconds 95° C., 30 seconds 57° C. (51° C. for APC), and 30 seconds 72° C., followed by 5 minutes 72° C. A standard curve (2×106—20 copies) was included to determine copy numbers of unknown samples by interpolation of their Ct values to the standard curve.
Marker selection in colon tissue: Based on re-expression, 224 different gene assays representing 145 gene promotors were tested on the Base5 methylation profiling platform (data not shown, see reference 1 for details). The 37 most differentially methylated gene sequences assessing 29 gene promoters were validated on retrospectively collected tumors from 65 colorectal cancer patients (all stages) and 74 distant resection ends (histopathologically normal) using real-time MSP. Several markers reliably detected CRC in those tissue samples (data not shown). The results were confirmed on an independent test set containing 39 tissue controls (non-cancerous), 34 carcinomas and 16 adenomas. Several combinations of the tested markers reliably detected CRC with high specificity and sensitivity.
The ten best performing markers GATA5, GATA4, SFRP1, SFRP2, APC, MGMT, NDRG4, OSMR, JPH3 and ADAM23 were validated with primer sets and beacon probes as specified in Table 24. In addition to the colon test genes, the independent reference gene β-Actin (ACT) was also measured. The ratios between the colon test genes and ACT were calculated, and are the test result of the assay.
Marker candidates identified by re-expression were screened using 37 real-time methylation specific PCR (real-time MSP) assays. These assays were used to assess the methylation status of 29 gene promoters in 293 formalin-fixed paraffin-embedded (FFPE) tissue samples collected from various clinics. Samples included 99 carcinomas of various stages, 16 adenomas, 63 samples from patients with cancer other than CRC (20 breast [stages I-III], 22 bladder [stages I-III], 21 lung [stages I and II]), 39 samples from patients with no evidence of cancer and 76 distant resection ends (histopathologically normal) from CRC patients. These samples were divided into training and independent test sets, and used to select the gene methylation assays best able to discriminate between cancerous and non-cancerous samples. The training set included retrospectively collected tumors from 65 colorectal cancer patients (all stages) and 74 distant resection ends. Using the 10 best performing genes the results were confirmed on an independent test set containing 59 samples from patients with cancer other than CRC, 39 non-cancerous controls and 50 cancer cases (34 carcinomas and 16 adenomas).
The individual performance of the 10 best performing tissue markers OSMR, SFRP1, GATA4, SFRP2, NDRG4, ADAM23, GATA5, MGMT, APC and JPH3 is shown in FIG. 7, when the analytical cut-off was set to give 100% specificity, except for JPH3 where a specificity of 95% was obtained (based on the 39 non-cancerous controls). In addition to the colon test genes, the independent reference gene β-Actin (ACT) was also measured. The ratios between the colon test genes and ACT were calculated, and are the test result of the assay.

The subject of data set [3] is methylated gene promoters in fecal DNA. The data set can be described thus: Real-time MSP on stool (fecal) DNA. Set-up: species or system human. To be noted: fecal samples; for Sens adenoma: 13 samples; for Sens CRC: 15 samples; for Spec: 19 samples. The source says: A standardized multicenter screening trial (The Netherlands) was initiated in 2006. In this trial, non symptomatic subjects aged 50 or above are screened with colonoscopy, FOBT and real-time MSP using DNA from stool and blood. In addition, prospectively collected stool samples from multiple centers (Germany and The Netherlands) were used. In these trials, symptomatic patients, attending a Gastroenterology clinic and ultimately diagnosed with CRC, provided a stool sample for use in real-time MSP. From the ongoing trials 147 stool samples were available for the present study. 3 main categories of stool samples were used: 67 samples with no suspicious findings, 58 adenomas and 22 samples from patients covering all stages of CRC, with 90% representing early stage disease.
After defecation in a special bucket, patients added 250 ml of stool homogenization buffer (Amresco, Solon, Ohio, USA) to the sample. Samples were shipped to the laboratory and further processed within 72 hours after defecation. Stool homogenization buffer was added to a ratio 1:7, and the samples were homogenized and aliquoted in portions of 32 ml.
Single aliquots (32 ml containing the equivalent of 4 g of stool) were centrifuged for 5 minutes at 2540 rcf at 20° C. The supernatant was retained and centrifuged a second time (10 minutes at 16500 rcf at 4° C.). 22 ml of the supernatant obtained following the second centrifugation step was incubated with 5 μl Rnase A for 60 minutes at 37° C. Total DNA was then SodiumAcetate (pH 5.2)-isopropanol precipitated and washed with 70% ethanol. The DNA was resuspended in 4 ml 1×TE (pH 7.4). 400 μl 10× buffer (240 mM EDTA (pH=8.0), 750 mM NaC), 400 μl 10% SDS, and 20 μl Proteinase K (20 mg/ml) was added and the samples were incubated at 48° C. overnight at constant shaking (225 RPM). After centrifugation (3000 RCF for 30 seconds at room temperature), 5 ml of Phenol:Chloroform:Isoamylalcohol (25:24:1, v/v:Invitrogen) was added and incubated for 10 minutes at room temperature shaking at 225 RPM and centrifuged for 5 minutes at 3000 RCF. The aqueous layer was transferred to a new tube containing 5 ml of Phenol:Chloroform:Isoamylalcohol. Again, the samples were incubated for 10 minutes at room temperature shaking at 225 RPM and centrifuged for 5 minutes at 3000 RCF at room temperature. The aqueous layer was transferred to a new tube and DNA was precipitated by adding 500 μl 7.5 M Ammonium Acetate, 5 μl glycogen and 10 ml of cold 100% Ethanol (−20° C.), further incubated at −20° C. for at least 1 hour and centrifuged at 15000 RCF for 30 minutes at 4° C. Pellets were washed with 3.5 ml freshly prepared 70% Ethanol and air dried. Pellets were finally resuspended in 2 ml of LoTE pH 8.0 and stored at −80° C., until further processing.
An upscaled DNA modification step was applied to 32 μg of the obtained DNA. 16 Aliquots of 2 μg of DNA were subjected to bisulfite modification in 96-wells format on a pipetting robot (Tecan), using the EZ-96DNA Methylation kit (Zymo Research), according to the manufacturer's protocol. Basically, aliquots of 45 μl were mixed with 5 μl of M-Dilution Buffer and incubated at 37° C. for 15 minutes shaking at 1100 rpm. Then 100 μl of the diluted CT Conversion Reagent was added and samples were incubated at 70° C. for 3 hours, shaking at 1100 rpm in the dark. After conversion, the samples were desalted by incubation on ice for 10 minutes and addition of 400 μl of M-Binding buffer. The samples were loaded on a Zymo-Spin I Column in a collection tube and after centrifugation washed with 200 μl of M-Wash Buffer. 200 μl of M-Desulphonation Buffer was put onto the column and incubated at room temperature for 15 minutes. After centrifugation of the columns, they were washed twice with 200 μl of M-Wash Buffer. Finally, the DNA was washed from the column in 50 μl Tris-HCl 1 mM pH8.0 and stored at −80° C., until further processing.

The mark [4] stands for this setting: plasmid standard, quantity 20 copies.
Where [5] appears, read: plasmid standard, quantity 200 copies.
The mark [6] stands for this setting: plasmid standard, quantity 2000 copies.
Setting [7] is: plasmid standard, quantity 20000 copies.
[8] abbreviates: plasmid standard, quantity 200000 copies.
[9] abbreviates: plasmid standard, quantity 2000000 copies.
The mark [10] stands for this setting: 16 adenoma tissue samples vs 39 controls.
The mark [11] stands for this setting: 34 carcinoma tissue samples vs 39 controls.

Turning to “OSMR_4 (DNA TTTGGTCGGGGTAGGAGTAGC; listed as DNA, chemistry not given here)”, the PCR efficiency in data set [1] amounted to 100.8%. In addition, the “Average Ct” value was 34.37 in data set [1] (setting [4]); 31.28 in data set [1] (setting [5]); 28.08 in data set [1] (setting [6]); 24.72 in data set [1] (setting [7]); 21.31 in data set [1] (setting [8]); 18.07 in data set [1] (setting [9]). Further, the Ct in data set [1] (setting [4]) amounted to 34.63; in data set [1] (setting [5]), 31.37; in data set [1] (setting [6]), 28.24; in data set [1] (setting [7]), 24.79; in data set [1] (setting [8]), 21.56; in data set [1] (setting [9]), 18.24. In addition, the “Duplicate Ct” value stood at 34.12 in data set [1] (setting [4]); 31.18 in data set [1] (setting [5]); 27.91 in data set [1] (setting [6]); 24.64 in data set [1] (setting [7]); 21.05 in data set [1] (setting [8]); 17.90 in data set [1] (setting [9]).
In the case of “MGMT (DNA TTTCGACGTTCGTAGGTTTTCGC; listed as DNA, chemistry not given here)”, in data set [2] (setting [10]), the Sensitivity is on record as 63% and the Specificity amounted to 100%. Moreover, in data set [2] (setting [11]), the Sensitivity is recorded as 35% and the Specificity was 100%. Further, the “Specificity (%)” value in data set [2] is 100%. In addition, the “Sensitivity (%)” value in data set [2] (first cut off ratio) worked out at 44%.
Regarding “OSMR_3 (DNA TTTGGTCGGGGTAGGAGTAGC; listed as DNA, chemistry not given here)”, the Ct in data set [1] (NTC (non template control), quantity 0) is on record as 38.13; in data set [1] (setting [4]), 34.18; in data set [1] (setting [5]), 30.51; in data set [1] (setting [6]), 27.22; in data set [1] (setting [7]), 23.97; in data set [1] (setting [8]) it was 20.41. The Ct in data set [1] (setting [9]) came out at 16.93. Also, in data set [1], the PCR efficiency is given as 97.2%. In addition, the “Average Ct” value is reported as 33.98 in data set [1] (setting [4]); 30.59 in data set [1] (setting [5]); 27.19 in data set [1] (setting [6]); 23.90 in data set [1] (setting [7]); 20.35 in data set [1] (setting [8]); 17.04 in data set [1] (setting [9]). Besides, the “Duplicate Ct” value in data set [1] (setting [4]) came out at 33.77; in data set [1] (setting [5]) it was 30.67; in data set [1] (setting [6]), 27.16; in data set [1] (setting [7]), 23.83; in data set [1] (setting [8]) it was 20.29; in data set [1] (setting [9]), 17.16.
For the substance “OSMR (3) (DNA TTTGGTCGGGGTAGGAGTAGC; listed as DNA, chemistry not given here)”, in data set [2] (setting [10]), the Sensitivity is 88% and the Specificity is 100%. In data set [2] (setting [11]), the Sensitivity turned out to be 88% and the Specificity was 100%. Also, the “Specificity (%)” value in data set [2] came to 100%. Further, the “Sensitivity (%)” value in data set [2] (first cut off ratio) is given as 88%. In data set [3], the Sens adenoma amounted to 8%, the “Sens CRC” value came out at 67% and the Spec worked out at 100%.
Turning to “GATA4 (DNA AGGTTAGTTAGCGTTTTAGGGTC; listed as DNA, chemistry not given here)”, in data set [2] (setting [10]), the Sensitivity is reported as 88% and the Specificity amounted to 100%. In addition, in data set [2] (setting [11]), the Sensitivity worked out at 74% and the Specificity amounted to 100%. For the same substance, the “Specificity (%)” value in data set [2] stood at 100%. In addition, the “Sensitivity (%)” value in data set [2] (first cut off ratio) is 78%. For the same substance, in data set [2] (second cut off ratio, between ( )), the “Sensitivity (%)” value is recorded as “(82) %”. Moreover, in data set [3], the Sens adenoma was determined as 15%, the “Sens CRC” value worked out at 73% and the Spec was 100%.

The values above are taken from patent publication US12215389B2, “Compositions for detecting epigenetic modifications” (EXACT SCIENCES CORPORATION, priority 2007, dated 2025).
